Entries after “also recorded” stand apart in the source; their conditions may differ.
Key:
[1] = system: SKOV3; assay: MTT antiproliferative assay, SKOV3; format: cell-based; details: Homo sapiens, SK-OV-3, SKOV3, 48 h, read-out: In vitro cell growth inhibition IC50, SKOV3
Experimental: (§1) 5000 tumor cells per well were seeded into 96-well plate and allowed to adhere overnight. Cells were treated with various concentrations of tested compounds or DMSO (0.2%, as negative control) for 48 h. Then, the medium along with tested compounds or DMSO was discarded and […] per well MTT containing medium (0.5 mg/mL) was added. After incubation at 37° C. for 4 h, the MTT-containing medium was replaced by DMSO (150 μL per well) to dissolve the formazan crystals. Absorbance of the resulting solution was measured by microplate reader (Biotech ELx800) at 540 nm wavelength. Growth inhibition rates were calculated with the absorbance. Half maximal inhibitory concentration (IC50) of each compound was calculated using GraphPad Prism, version 6.0.

[2] = system: Hela; assay: MTT antiproliferative assay, Hela; format: cell-based; details: Homo sapiens, 48 h, read-out: In vitro cell growth inhibition IC50, Hela
Experimental: as §1

[3] = system: tubulin; assay: Immunoblotting analysis of polymerized/depolymerized tubulin; format: cell-based, human; details: Hela cells, 6 h
Experimental: After being treated with diluent (0.2% DMSO), tested compound, CA-4 or PTX for 6 h, Hela cells were lysed with microtubulestabilizing buffer, containing 100 mM PIPES, pH 6.8, 1 mM MgCl2, 2 mM EGTA, 0.5% NP-40, 2 M glycerol, 5 μM PTX and protease inhibitors cocktail (Roche), and the lysate was centrifuged at 15,000 rpm for 15 min. Supernatant containing depolymerized tubulin was carefully collected, whereas pellet (polymerized tubulin) was further dissolved in SDS-lysis buffer (Beyotime, China). Equal amounts of supernatant and dissolved pellet were subjected to immunoblotting analysis as described above using a tubulin antibody (Proteintech).

[4] = system: tubulin; assay: Immunofluorescent analysis of tubulin morphology; format: cell-based, human; details: SKOV-3 cells, 24 h
Experimental: After treatment with diluent (0.2% DMSO) or tested compounds at indicated concentrations for 24 h, SKOV-3 cells were fixed with methanol, permeabilized with 0.1% Triton X-100 in PBS and blocked by goat serum. Then the cells were incubated with a-tubulin antibody at 4° C. overnight, followed by incubation with Alexa 488 labeled secondary antibody (Jackson ImmunoResearch) at RT for 1 h. After being stained with DAPI, cells were examined and photographed with a Leica SP5 co-focal fluorescence microscope.

[5] = system: MDA-MB-231 cells; assay: Colony formation assay; format: cell-based, human; details: 48 h treatment, 7-10 days growth
Experimental: 1000 MDA-MB-231 cells per well were seeded into 6-well plate at a single cell density and were cultured at 37° C. for 48 h. After being treated with indicated concentrations of 69, 70 and 97, CA-4 as positive control, or diluent (0.2% DMSO) as negative control for 48 h, the agents containing medium was replaced by fresh medium to allow cell growth for additional 7-10 days. Then the cells were fixed with methanol and stained with gentian violet for 30 min. The number of colonies which consisted of more than 50 cells were counted. The results were indicated as mean values from three independent determinations.

[6] = system: p-histone H3, cyclin B1 and BuBR1; assay: Cell cycle associated proteins assay; format: cell-based, human; details: HeLa cells, 24 h, Western blot and qPCR
Experimental: A. HeLa cells were treated with 69, 70, 97 or DMSO for 24 h. After being harvested, the cells were lysed, and the concentrations of total protein were determined by BCA protein assay kit (Beyotime, China). […] The membrane was blocked with 5% BSA in TBST for 1.5 h, then incubated overnight with specific primary antibodies (Proteintech) at 4° C. After being washed three times by TBST, the membrane was incubated with specific secondary antibodies (Abnova, Taipei, China) at room temperature for 2 h. Finally, chemiluminescent reagents (Millipore) were employed to detect the protein bands.
(§2) B. Quantitative PCR assay: HeLa cells were treated with 69, 70 or 97. The expression level of mRNA of target proteins was tested with qPCR kit (Takara).

[7] = system: cellular apoptosis; assay: Cell apoptosis analysis (Annexin V/PI); format: cell-based; details: 48 h, Annexin-V/PI flow cytometry
Experimental: Cell apoptosis was detected using FITC Annexin V Apoptosis Detection Kit (BD Biosciences) according to manufacturer's instructions. Briefly, cells were incubated with indicated concentrations of 69, 70 and 97, CA-4 as positive control or diluent (0.2% DMSO) as negative control for 48 h. Then the cells were harvested, washed twice with PBS, and re-suspended in binding buffer. After being stained with Annexin-V and PI for 15 min in the dark place, cells were subjected to flow cytometry (Cytomics FC 500 MPL, Beckman Coulter) analysis. The results were indicated as mean values from three independent determinations.

[8] = system: Bax, p53 and cleaved-PARP; assay: Expression level of apoptosis associated proteins; format: cell-based, human; details: HeLa cells, Western blot and qPCR
Experimental: A. Western blotting: After being treated with candidate compound, cells were harvested and lysed. Then, the lysate was isolated by ultracentrifuge and quantified by BCA assay according to the protocol. After being denatured, equivalent protein of each sample was separated by SDS-PAGE gel and wet-transferred onto […] nitrocellulose membrane. After being blocked by PBS containing 5% skim milk, the membrane was incubated with primary antibody at 4° C. overnight and secondary antibody at room temperature for 2 h and then visualized by enhanced chemiluminescence kit (Thermo Fisher, USA), sequentially.
as §2

[9] = system: KM mice; assay: Acute toxicity assay; format: in vivo
Experimental: KM mice were housed individually in a specific pathogen free facility. Groups of mice (n=10 per group, half male and half female) were injected intraperitoneally once with various dosages of 69 (95, 70, 50, 35, 25 mg/kg), 70 (500, 425, 350, 275, 200 mg/kg), 97 (275, 200, 150, 125 and 100 mg/kg) or vehicle (8.3% cremohorp EL and 8.3% alcohol in PBS) as negative control, respectively. 69, 70 and 97 was dissolved in cremeohore EL and alcohol mixture (1:1, v/v) and further diluted with PBS (1:5, v/v). The death of mice were monitored daily and recorded up to 14 days after injection.

[10] = system: A2780 cells; assay: Xenografts tumor growth assay in nude mice; format: in vivo, Balb/c nude mice; details: A2780 xenograft
Experimental: 6 weeks old female Balb/c nude mice were purchased from Shanghai Slac Laboratory Animal Co. Ltd. (Shanghai, China). 2*10^6 A2780 cells suspended in 0.2 mL PBS per mouse was injected subcutaneously into the nude mice. […] Administration of agents or vehicle, or agents and measurement of tumor volumes with a digital caliper was done once every 2 days. Tumor volumes were calculated as volume=shortest diameter (W)^2*longest diameter (L)*0.52. When the average tumor volumes of vehicle treated group reached 2000 mm^3 in diameter, the mice were sacrificed and the tumors were isolated and weighed. Visceral organs of the mice as well as solid tumors were further analyzed by H&E staining.

In the case of `COc1ccc([C@H]2C(=O)C(=O)N2c2cc(OC)c(OC)c(OC)c2)cc1OCc1ccccc1` [Compound 71, (S)-4-(3-(benzyloxy)-4-methoxyphenyl)-1-(3,4,5-trimethoxyphenyl)azetidine-2,3-dione], the IC50 [1] is reported as > 10 µM and the IC50 [2] is reported as > 10 µM.
With `COc1ccc([C@H]2[C@H](C)C(=O)N2c2cc(OC)c(OC)c(OC)c2)cc1O` [Compound 97, (3S,4R)-4-(3-hydroxy-4-methoxyphenyl)-3-methyl-1-(3,4,5-trimethoxyphenyl)azetidin-2-one] the “polymerized tubulin (immunoblotting)” value [3] was “significantly inhibit tubulin aggregation; also recorded: dramatically reduction of polymerized tubulin”, the “tubulin assembly (immunofluorescence)” value [4] was “significantly inhibit tubulin aggregation; also recorded: strongly inhibit tubulin assembly in cancer cells” and the colony formation [5] was “significantly inhibit the formation of colonies of cancer cells”. The “expression of p-histone H3, cyclin B1 and BuBR1” value [6] was “significantly promote the expression of phosphorylated histone H3, cyclin B1, and mitotic checkpoint protein BuBR1”, the cellular apoptosis [7] was “significantly promote apoptosis; also recorded: significantly induce cellular apoptosis” and the “expression of Bax, p53 and cleaved-PARP” value [8] was “significantly promote the expression of the proapoptotic protein Bax, the tumor suppressor gene p53, and the cleaved DNA repair enzyme; also recorded: significantly induce the expression of Bax, p53 and cleaved-PARP”. The “No. of dead mice 5-14 days” value ([9]; 100 mg/kg i.p. once) was 0, the “No. of dead mice 1 day” value ([9]; 100 mg/kg i.p. once) was 0 and the “No. of dead mice 2 days” value ([9]; 100 mg/kg i.p. once) was 0. For the same molecule, the “No. of dead mice 3 days” value ([9]; 100 mg/kg i.p. once) was 1, the “No. of dead mice 4 days” value ([9]; 100 mg/kg i.p. once) was 0 and the “No. of dead mice Total death” value ([9]; 100 mg/kg i.p. once) was 1. The “Survival (%) on day 14” value ([9]; 100 mg/kg i.p. once) was 90%, the “No. of dead mice 5-14 days” value ([9]; 125 mg/kg i.p. once) was 0 and the “No. of dead mice 1 day” value ([9]; 125 mg/kg i.p. once) was 0. For the same molecule, the “No. of dead mice 2 days” value ([9]; 125 mg/kg i.p. once) was 2, the “No. of dead mice 3 days” value ([9]; 125 mg/kg i.p. once) was 1 and the “No. of dead mice 4 days” value ([9]; 125 mg/kg i.p. once) was 0. For the same molecule, the “No. of dead mice Total death” value ([9]; 125 mg/kg i.p. once) was 3, the “Survival (%) on day 14” value ([9]; 125 mg/kg i.p. once) was 70% and the “No. of dead mice 5-14 days” value ([9]; 150 mg/kg i.p. once) was 0. The “No. of dead mice 1 day” value ([9]; 150 mg/kg i.p. once) was 2, the “No. of dead mice 2 days” value ([9]; 150 mg/kg i.p. once) was 4 and the “No. of dead mice 3 days” value ([9]; 150 mg/kg i.p. once) was 0. For the same molecule, the “No. of dead mice 4 days” value ([9]; 150 mg/kg i.p. once) was 0, the “No. of dead mice Total death” value ([9]; 150 mg/kg i.p. once) was 6 and the “Survival (%) on day 14” value ([9]; 150 mg/kg i.p. once) was 40%. The “No. of dead mice 5-14 days” value ([9]; 200 mg/kg i.p. once) was 0, the “No. of dead mice 1 day” value ([9]; 200 mg/kg i.p. once) was 1 and the “No. of dead mice 2 days” value ([9]; 200 mg/kg i.p. once) was 4. The “No. of dead mice 3 days” value ([9]; 200 mg/kg i.p. once) was 2, the “No. of dead mice 4 days” value ([9]; 200 mg/kg i.p. once) was 0 and the “No. of dead mice Total death” value ([9]; 200 mg/kg i.p. once) was 7. The “Survival (%) on day 14” value ([9]; 200 mg/kg i.p. once) was 30%, the “No. of dead mice 5-14 days” value ([9]; 275 mg/kg i.p. once) was 0 and the “No. of dead mice 1 day” value ([9]; 275 mg/kg i.p. once) was 2. For the same molecule, the “No. of dead mice 2 days” value ([9]; 275 mg/kg i.p. once) was 4, the “No. of dead mice 3 days” value ([9]; 275 mg/kg i.p. once) was 2 and the “No. of dead mice 4 days” value ([9]; 275 mg/kg i.p. once) was 1. The “No. of dead mice Total death” value ([9]; 275 mg/kg i.p. once) was 9, the “Survival (%) on day 14” value ([9]; 275 mg/kg i.p. once) was 10% and the “tumor growth in vivo” value ([10]; i.p. once every 2 days, 69 7.5 mg/kg, 70 12.5 mg/kg, 97 4 or 8 mg/kg) was “significantly inhibit tumor growth in vivo; also recorded: anti-tumor activities in vivo”. For the same molecule, the “H&E staining of liver, kidney and spleen” value ([10]; treated groups) was “no abnormal areas are observed in tissue staining of liver, kidney and spleen; also recorded: no detectable abnormalities were observed in liver, kidney and spleen” and the “H&E staining of tumor sections (necrosis)” value ([10]; treated groups) was “cause tumor tissue to produce necrotic areas; also recorded: extensive areas of necrosis or cell death”.

— patent US20220251039A1, “Diaryl-B-Lactam Compound and Preparation Method and Pharmaceutical Use Thereof” (Fudan University, priority 2016, published 2022)
